In US9051310B2, “Nicotinamide derivative or salt thereof” (FUJIFILM Corporation, priority 2011, dated 2015):

Columns and labels:
[1] = molecular target: T1, glutathione S-transferase (GST)-linked full-length human Syk protein (Homo sapiens, UniProt P43405); assay: Syk enzyme assay; format: biochemical; details: 0.83 nM Syk, time-resolved fluorescence; read-out: IC50 of Syk-inhibitory activity
T1 construct: glutathione S-transferase (GST)-linked full-length human Syk protein; purchased Carna Biosciences; host or cells: Baculovirus expression system
Method in brief: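 Phosphotyrosine on a biotin-peptide substrate (0.5 μM) was read by time-resolved fluorescence at 615 and 665 nm with Eu-anti-pTyr antibody and APC-streptavidin after 1 h EDTA stop.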

[2] = test system: THP-1 cells (TNFα secretion on human IgG-coated plate); assay: TNFα generation assay; format: cell-based; details: IFN-γ differentiated THP-1 cells, 7 hours, AlphaLISA, read-out: IC50 of TNFα generation inhibitory activity
Method in brief: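 Secreted TNFα was measured by AlphaLISA after 7 h of culture on human IgG-coated wells (coating at 10 μg/ml), with 5×10^4 cells/well. Before plating, the cells had been treated with compound for 30 min at room temperature. The cells were macrophage-like THP-1, produced by a 2-day exposure to 10 ng/ml IFN-γ.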

SMILES	IC50 [1] [nM]	IC50 [2] [nM]
COc1cccc(Nc2nc(N[C@H](C3CC3)[C@H](C)N)c(F)cc2C(N)=O)c1 [Example 2-46, 6-(((1R,2S)-2-amino-1-cyclopropylpropyl)amino)-5-fluoro-2-((3-methoxyphenyl)amino)nicotinamide]	< 10	65 to 130
CC[C@H](N)[C@@H](CC)Nc1nc(Nc2ccnc(OCCOC)c2)c(C(N)=O)cc1F [Example 2-43, 6-(((3R,4S)-4-aminohexan-3-yl)amino)-5-fluoro-2-((2-(2-methoxyethoxy)pyridin-4-yl)amino)nicotinamide]	< 10	130 to 200
COc1cc(Nc2nc(N[C@H](C3CCC3)[C@H](C)N)c(F)cc2C(N)=O)ccn1 [Example 2-5, 6-(((1R,2S)-2-amino-1-cyclobutylpropyl)amino)-5-fluoro-2-((2-methoxypyridin-4-yl)amino)nicotinamide]	< 10	65 to 130
COc1nn(C)c2ccc(Nc3nc(N[C@@H](CN)CC(C)C)c(F)cc3C(N)=O)cc12 [Example 2-78, (R)-6-((1-amino-4-methylpentan-2-yl)amino)-5-fluoro-2-((3-methoxy-1-methyl-1H-indazol-5-yl)amino)nicotinamide]	< 10	65 to 130
COCCn1nc(C)c2cc(Nc3nc(N[C@H](CC(C)C)[C@H](C)N)c(F)cc3C(N)=O)ccc21 [Example 2-134, 6-(((2S,3R)-2-amino-5-methylhexan-3-yl)amino)-5-fluoro-2-((1-(2-methoxyethyl)-3-methyl-1H-indazol-5-yl)amino)nicotinamide]	< 10	130 to 200
CC[C@@H](Nc1nc(Nc2cc(F)c3c(c2)c(N(C)C)nn3C)c(C(N)=O)cc1F)[C@H](C)N [Example 2-186, 6-(((2S,3R)-2-aminopentan-3-yl)amino)-2-((3-(dimethylamino)-7-fluoro-1-methyl-1H-indazol-5-yl)amino)-5-fluoronicotinamide]	< 10	65 to 130
Cc1cc(C)cc(Nc2nc(N[C@H](C3CC3)[C@H](C)N)c(F)cc2C(N)=O)c1 [Example 2-45, 6-(((1R,2S)-2-amino-1-cyclopropylpropyl)amino)-2-((3,5-dimethylphenyl)amino)-5-fluoronicotinamide]	< 10	130 to 200
Cc1nn(C)c2ncc(Nc3nc(N[C@H](C4CC4)[C@H](C)N)c(F)cc3C(N)=O)cc12 [Example 2-243, 6-(((1R,2S)-2-amino-1-cyclopropylpropyl)amino)-2-((1,3-dimethyl-1H-pyrazolo[3,4-b]pyridin-5-yl)amino)-5-fluoronicotinamide]	10 to 50	130 to 200

The next lines start with the values.

IC50 [1] [nM]	IC50 [2] [nM]	SMILES
< 10	65 to 130	COc1nn(C)c2ncc(Nc3nc(N[C@@H]4CCCC[C@@H]4N)c(F)cc3C(N)=O)cc12 [Example 2-249, 6-(((1R,2S)-2-aminocyclohexyl)amino)-5-fluoro-2-((3-methoxy-1-methyl-1H-pyrazolo[3,4-b]pyridin-5-yl)amino)nicotinamide]
< 10	65 to 130	C[C@H](N)[C@H](Nc1nc(Nc2cnc(N3CCOCC3)c(F)c2)c(C(N)=O)cc1F)c1cccs1 [Example 2-508, 6-(((1S,2S)-2-amino-1-(thiophen-2-yl)propyl)amino)-5-fluoro-2-((5-fluoro-6-morpholinopyridin-3-yl)amino)nicotinamide]
< 10	65 to 130	CCn1ncc2cc(Nc3nc(N[C@H](c4ccccc4F)[C@H](C)N)c(F)cc3C(N)=O)ccc21 [Example 2-410, 6-(((1R,2S)-2-amino-1-(2-fluorophenyl)propyl)amino)-2-((1-ethyl-1H-indazol-5-yl)amino)-5-fluoronicotinamide]
< 10	130 to 200	CC[C@@H](Nc1nc(Nc2cccc(C)c2)c(C(N)=O)cc1F)[C@H](C)N [Example 2-474, 6-(((2S,3R)-2-aminopentan-3-yl)amino)-5-fluoro-2-(m-tolylamino)nicotinamide]
